From patent US10815200B2, “18F—tagged inhibitors of prostate specific membrane antigen (PSMA) and their use as imaging agents for prostate cancer” (DEUTSCHES KREBSFORSCHUNGSZENTRUM, priority 2015, dated 2020)

Tests used:
[1] = system: PC3-tumor (PSMA negative); experiment: Organ distribution in mice carrying a PC3-tumor (PSMA negative); assay type: in vivo
Method: (§1) For in vivo experiments, 8 week old BALB/c nu/nu mice were subcutaneously inoculated into the right trunk with 5×10^6 LNCaP- or PC3-cells in 50% Matrigel. When the size of tumor was approximately 1 cm^3, the radiolabeled compound was injected via the tail vein (ca. 30 MBq, 60 pmol for μPET imaging; ca. 1 MBq, 60 pmol for organ distribution).
(§2) The F-18 labeled compounds were injected via tail vein (1-2 MBq per mouse; 60 pmol). At 1 h after injection, the animals were sacrificed. Organs of interest were dissected, blotted dry, and weighed. The radioactivity was measured with a gamma counter (Packard Cobra II, GMI, Minnesota, USA) and calculated as % ID/g.

[2] = system: LNCaP tumor (PSMA positive); assay type: in vivo, mice
Method: as §1, §2

[3] = system: prostate cancer; experiment: First-in-man PET study in patients suffering from prostate cancer, with histopathology correlation; assay type: in vivo, human
Method: Ten patients (age 60-80 years) suffering from a newly diagnosed high-risk prostate cancer with a gleason score of 7-9 and initial PSA levels of 5-90 ng/ml were injected 100-360 MBq [^18F]-PSMA-1007 and subsequently PET scans were performed on a Biograph mCT Flow scanner (Siemens, Erlangen, Germany) at 1 and 3 h p.i. The results are depicted in FIGS. 17 and 18 as mean values of the SUVmean and SUVmax, respectively. The pictures gained with the PET scans are exemplified in FIGS. 19 and 20 as maximum intensity projections.
Eight of the patients underwent radical prostatectomy with extended pelvic lymphadenectomy. Analyses of prostatectomy specimen were performed blinded to PET-data under the supervision of dedicated uropathologists, according to International Society of Urological Pathology standards (T. H. van der Kwast et al. Mod. Phathol. 2011, 24, 16-25). Representative sections were stained by immunohistochemistry. The sections were deparaffinized in xylene and rehydrated in a graded ethanol series. Antigen retrieval was performed with a steam cooker using retrieval buffer (Target Retrieval Solution, Dako). A mouse monoclonal antibody against PSMA (clone 3E6, Dako) was used at a 1:100 dilution and incubated overnight at 4° C. ad subsequently immunodetection was performed using the Histostain-Plus detection kit (Invitrogen). Stained sections were scanned using a Nanozoomer 2.0-HT Scansystem (Hamamatsu Photonics) to generate digital whole slide images.

[4] = system: LNCaP cells; experiment: Specific cell uptake and internalization in LNCaP cells; assay type: cell-based, human
Method: During cell culture, cells were grown at 37° C. in an incubator with humidified air, equilibrated with 5% CO2. […] To determine the specific cell uptake and internalization, 10^5 cells were seeded in poly-L-lysine coated 24-well cell culture plates 24 h before incubation. After washing, the cells were incubated with 30 nM of the radiolabeled compounds for 45 min at 37° C. […] Cellular uptake was terminated by washing 3 times with 1 mL of ice-cold PBS. […] The cells were washed with 1 mL of ice-cold PBS and lysed using 0.3 N NaOH (0.5 mL). The surface-bound and the internalized fractions were measured in a gamma counter. The cell uptake was calculated as percent of the initially added radioactivity bound to 10^5 cells [% ID/10^5 cells].

[5] = system: LNCaP tumor xenografts; experiment: MicroPET in mice bearing LNCaP tumor xenografts; assay type: in vivo; conditions: 120-140 min p.i.
Method: For the microPET studies, 10-25 MBq of the radiolabeled compounds in a volume of 0.10 ml (60 pmol) were injected via a lateral tail vein into mice bearing LNCaP tumor xenografts. The anesthetized animals (2% sevoflurane, Abbott, Wiesbaden, Germany) were placed in prone position into the Inveon small animal PET scanner (Siemens, Knoxville, Tenn., USA) to perform dynamic microPET scans.
as §1

[6] = PET/CT dosimetry and kinetics in a healthy volunteer; assay type: in vivo, human
Method: The healthy subject was injected a total activity of 300 MBq and subsequently PET scans were performed on a Biograph mCT Flow scanner (Siemens, Erlangen, Germany) in three blocks. Block 1 contained PET-1 (start 5 min p.i.) to PET-7 (ending 140 min p.i.), block 2 contained PET-8 (start 180 min p.i.) and PET-9 (240-270 min p.i.), block 3 contained PET-10 (440-480 min p.i.). A non-enhanced low-dose CT (estimate 1.43 mSv, respectively) for attenuation correction was performed at the beginning of each block, followed by serial emission scans without moving the volunteer in between.
Kidneys, liver, spleen, whole heart, upper and lower large intestine, parotid glands, submandibular glands and urinary bladder were segmented into volumes of interest (VOIs) using a percentage of maximum threshold between 20% and 30% using the corresponding CT as guidance and then time activity curves (TACs) were calculated for all organs. The TAC for red marrow was derived from the venous blood samples and then the dose for the red marrow calculated (S. Shen et al., JNM 2002, 43, 1245-1253; G. Sgouros et al., JNM 1993, 34, 689-694.). The TAC for the urinary bladder content was a combination of estimated activity in the urinary bladder VOI in PET and activity measured in the voided urine. Curve fitting was applied to all TACs. Kidneys, salivary glands, upper and lower large intestine and heart were fitted with a bi-exponential function. For liver, spleen and urinary bladder content a mono-exponential fit to the last three time points was performed.
Absorbed and effective dose calculations were performed using the ICRP endorsed IDAC 1.0 package which is integrated in QDOSE. Additionally, residence times of all included source organs and remainder body were exported as an OLINDA case file for dose calculation (OLINDA 1.1). The absorbed doses to the salivary glands (parotid and submandibular glands) were determined using the spherical model. The organ masses for the salivary glands were estimated with 25 g for a parotid and 12.5 g for a submandibular gland (ICRP publication 89).

[7] = 30 nM radiolabeled compound, 45 min, 37° C., specific (PMPA block)

SMILES: O=C(O)CCC(NC(=O)NC(CCCCNC(=O)C(Cc1ccc2ccccc2c1)NC(=O)c1ccc(CNC(=O)C(CCC(=O)O)NC(=O)C(CCC(=O)O)NC(=O)c2ccc([18F])nc2)cc1)C(=O)O)C(=O)O (centres unmarked) [PSMA-1007, (Glu)-(Urea)-(Lys)-(2-Nal)-(Bn)-(Glu)-(Glu)-FN]
- tumor uptake [1]: practically no tumor uptake was observed
- blocking of tumor binding in the blocking experiment ([2]; LNCaP tumor mice with PMPA block): a quantitative blocking of the binding was not observed
- tumor uptake ([2]; LNCaP tumor mice, 1 h after injection, non-blocked): about 8.0±2.4 % ID/g
- uptake in non-target tissue such as the liver and the small intestine ([2]; mouse, in vivo): significantly reduced uptake
- correlation of prostatectomy histopathology with PET images [3]: nearly perfect correlation
- diameter of detected lymph node metastases [3]: ≥ 1 mm
- specificity (correlation with pelvic lymphadenectomy samples) [3]: 95%
- tumor-to-background ratios in the primary tumor ([3]; calculated from SUVmax): up to 10
- Cell surface [4, 7]: 2.7 % ID/10^5 cells
- Internalised [4, 7]: 6.5 % ID/10^5 cells
- Internalized fraction ([4]; (Internalized activity/total activity)*100): 71%
- SUVmax of LNCaP tumor [5]: 3.1
- effective dose of a PET/CT scan ([6]; 200-250 MBq, healthy volunteer): 4.3-5.4 mSv
- blood pool activity found in the serum ([6]; healthy volunteer): More than 95%
- effective dose per injected activity ([6]; healthy volunteer): 0.0215 mSv/MBq
- clearance pathway ([6]; in comparison to other known PSMA-tracers): very unique hepatobiliary clearance with very small clearance via the renal pathway
- clearance from the blood pool ([6]; within the first 3 h after injection, healthy volunteer): more than 90%
